Test results: US20220378773A1, “METHODS FOR TREATING LEUKEMIA AND USE OF A LEUKEMIC STEM CELL SIGNATURE TO PREDICT CLINICAL SENSITIVITY TO THERAPIES” (CELGENE CORPORATION, priority 2019, published 2022)

Test system: AML graft (human CD45+CD33+ cells)
Assay: AML xenograft efficacy, 2.5 mg/kg IP twice daily
Format: in vivo, NOD/SCID mice
Conditions: for In vivo Efficacy (% reduction) BM / In vivo Efficacy (% reduction) RF: AML cells vs vehicle; for Response: class by % reduction of AML cells in RF or BM
Excerpt: Preparation of Test Article for Dosing: For in vivo Compound D dosing, Compound D was formulated immediately prior to each dose following the protocol below.
Formulation: 5% NMP/45% polyethylene glycol (PEG) 400/50% Saline; NMP—Catalogue no. 69118 (new no. M79603-1L), Fluka; PEG400—Catalogue no. 81172-1L, Fluka; Saline—0.9% sodium chloride.
Preparation: Weigh the desired amount of compound in glass vial. Add NMP and vortex. Make sure that entire compound is wet. Add PEG400 and vortex until clear solution without particulates. Add saline slowly and mix thoroughly for about a minute with hand held homogenizer with disposable tip.
Compound Administration: Compound D is dosed via the intraperitoneal route. Vehicle and Compound D are dosed in a volume of 2.5 mL/kg for twice daily (BID) dosing (if testing once daily [QD] dosing, use a dose volume of 5 mL/kg). Recommend a twice daily protocol with a 3-hour separation between the doses.
Intrafemoral Transplantation: One day prior to transplantation, NOD/SCID mice were preconditioned by sublethally irradiating (275 cGy) followed by injection with anti-CD122 antibody (200 μg/mouse) to deplete residual host natural killer (NK) cells. On the day of transplantation, viably frozen AML bulk cells (see Section 6.2.1.2) were thawed, counted, and transplanted intrafemorally into the preconditioned mice at a dose of 5×10^6 cells/mouse in a total volume of 30 μL phosphate buffered saline.
Treatment and Assay Procedure: At Day 21 post AML transplantation, mice were randomly grouped and dosed with either Compound D at 2.5 mg/kg or vehicle (5% N-methyl-2-pyrrolidone [NMP]/45% polyethylene glycol [PEG] 400/50% saline), intraperitoneally twice daily in a dose volume of 50 μL for 4 weeks. All animals were euthanized at scheduled termination (1 day after the last treatment) and bone marrow was collected from the right femur (injected bone marrow) and the left femur and left and right tibia (non-injected bone marrow). Cells isolated from injected or non-injected bone marrow were analyzed by flow cytometry to assess AML engraftment, and were viably frozen for future secondary engraftment analysis.
Cells harvested from injected and non-injected bone marrow were stained with mouse anti human antibodies as indicated in Section 6.2.1.3. After staining, washed cells were run on an LSRII flow cytometer (BD, USA) with 10,000 to 20,000 events collected for each sample. Collected data were analyzed by FlowJo software (TreeStar, USA) to assess AML engraftment levels in different tissues as determined by the percentage of human CD45+CD33+ cells.
Immune-deficient NOD/SCID mice were sublethally irradiated (225cGy) and treated with anti-CD122 antibody to eradicate residual mouse NK cells the day before AML implantation. Primary AML cells from each patient were intrafemorally injected into the mouse right femur at the cell dose 5×10^6 per mouse, with 10 mice transplanted per sample. Compound D and vehicle treatment was initiated at day 21 post transplantation. Compound D was administered at 2.5 mg/kg, intraperitoneally (IP) twice a day at 3 hours apart for 4 weeks. Before each treatment, Compound D was freshly dissolved into the solution. Vehicle was the same solution without Compound D compound and given to the control-treated mice at same volume (50 μL/mouse) with the same therapeutic schedule as Compound D treatment. For each patient sample, each treated group had 5 mice.
After treatment finished, cells were harvested from both injected right femur (RF) and non-injected bone marrow (BM, including left femur, 2 tibias), and stained with human antibodies to assess the engraftment levels of AML. Antibodies used for staining included: Mouse anti-human CD45-APC, CD15-FITC, CD34-APC7, CD38-PC7 (BD Biosciences, USA), CD14-PE, CD33-PC5 (Beckman Coulter, USA), CD19-V450, CD19-AF700, CD11b-APC7, CD34-BV421 (BD Biosciences, USA), and propidium iodide (PI; Invitrogen, USA).

[1] = three samples with high LSC17 score

O=C1CCC(N2Cc3cc(CNC(=O)C(F)(F)c4ccc(Cl)cc4)ccc3C2=O)C(=O)N1 (centres unmarked) [Compound D, 2-(4-chlorophenyl)-N-((2-(2,6-dioxopiperidin-3-yl)-1-oxoisoindolin-5-yl)methyl)-2,2-difluoroacetamide]
response of samples with low LSC17 scores (7 of the low LSC17 samples, more than 50% reduction): responded very well
human CD45+ leukemia graft in RF and BM (AML 100348 (low LSC17)): significant response
paralyzation or death (AML Patient 90668, 5 million cells per mouse): did not rescue these mice from paralyzation or death
number of high LSC17 samples with more than 80% leukemia reduction, BM (BM): 17
number of samples with 50 to 75% reduction (group 2), BM (BM): 6
number of samples with >80% reduction (group 1), BM (BM): 14
In vivo Efficacy (% reduction) BM (Patient 598): 95%
In vivo Efficacy (% reduction) RF (Patient 598): 46%
Response (Patient 598): R (R = >60%)
In vivo Efficacy (% reduction) BM (Patient 90191): −250%
In vivo Efficacy (% reduction) RF (Patient 90191): −21%
Response (Patient 90191): NR (NR = <30%)
In vivo Efficacy (% reduction) BM (Patient 100348): 90%
In vivo Efficacy (% reduction) RF (Patient 100348): 86%
Response (Patient 100348): R (R = >60%)
In vivo Efficacy (% reduction) BM (Patient 110484): 96%
In vivo Efficacy (% reduction) RF (Patient 110484): 73%
Response (Patient 110484): R (R = >60%)
In vivo Efficacy (% reduction) BM (Patient 110500): 67%
In vivo Efficacy (% reduction) RF (Patient 110500): 72%
Response (Patient 110500): R (R = >60%)
In Vivo Efficacy (Primary Mice) % AML cell reduction relative to Veh, BM (Patient 110625): 99.9%
In Vivo Efficacy (Primary Mice) % AML cell reduction relative to Veh, RE (Patient 110625): 99.9%
In vivo Efficacy (% reduction) BM (Patient 120791): 98%
In vivo Efficacy (% reduction) RF (Patient 120791): 69%
Response (Patient 120791): R (R = >60%)
In vivo Efficacy (% reduction) BM (Patient 120846): 26%
In vivo Efficacy (% reduction) RF (Patient 120846): 9%
Response (Patient 120846): NR (NR = <30%)
In vivo Efficacy (% reduction) BM (Patient 120858): 2%
In vivo Efficacy (% reduction) RF (Patient 120858): 0%
Response (Patient 120858): NR (NR = <30%)
percent and number of CD34+ primitive cells (Patient 120860): not reduced
numbers of AML cells, injected femur (Patient 120860 (low LSC17)): did not reduce the numbers of AML cells
number of AML cells, non-injected BM (Patient 120860 (low LSC17), vs vehicle): significantly reduced
In vivo Efficacy (% reduction) BM (Patient 120860): 20%
In vivo Efficacy (% reduction) RF (Patient 120860): 1%
Response (Patient 120860): NR (NR = <30%)
In vivo Efficacy (% reduction) BM (Patient 120899): 67%
In vivo Efficacy (% reduction) RF (Patient 120899): 13%
Response (Patient 120899): R (R = >60%)
In vivo Efficacy (% reduction) BM (Patient 121020): 52%
In vivo Efficacy (% reduction) RF (Patient 121020): 42%
Response (Patient 121020): PR (PR = 30%-60%)
In Vivo Efficacy (Primary Mice) % AML cell reduction relative to Veh, BM (Patient 130311): 99.6%
In Vivo Efficacy (Primary Mice) % AML cell reduction relative to Veh, RE (Patient 130311): 99.8%
In vivo Efficacy (% reduction) BM (Patient 130578): 73%
In vivo Efficacy (% reduction) RF (Patient 130578): 61%
Response (Patient 130578): R (R = >60%)
In vivo Efficacy (% reduction) BM (Patient 130695): 86%
In vivo Efficacy (% reduction) RF (Patient 130695): 52%
Response (Patient 130695): R (R = >60%)
In vivo Efficacy (% reduction) BM (Patient 130712): 56%
In vivo Efficacy (% reduction) RF (Patient 130712): 17%
Response (Patient 130712): PR (PR = 30%-60%)
In Vivo Efficacy (Primary Mice) % AML cell reduction relative to Veh, BM (Patient 130826): 98.1%
In Vivo Efficacy (Primary Mice) % AML cell reduction relative to Veh, RE (Patient 130826): 95.0%
In vivo Efficacy (% reduction) BM (Patient 130926): 85%
In vivo Efficacy (% reduction) RF (Patient 130926): 70%
Response (Patient 130926): R (R = >60%)
In vivo Efficacy (% reduction) BM (Patient 140171): 28%
In vivo Efficacy (% reduction) RF (Patient 140171): 4%
Response (Patient 140171): NR (NR = <30%)
In Vivo Efficacy (Primary Mice) % AML cell reduction relative to Veh, BM (Patient 150238): 98.7%
In Vivo Efficacy (Primary Mice) % AML cell reduction relative to Veh, RE (Patient 150238): 95.2%
number of high LSC17 samples with more than 80% leukemia reduction, RF (RF): 13
number of samples with 50 to 75% reduction (group 2), RF (RF): 10
number of samples with >80% reduction (group 1), RF (RF): Seventeen
number of samples with less than 25% reduction (group 3), RF (RF): 9
response, secondary and relapsed vs de novo AML (RF and BM): responses similar to the cells from de novo AML patients
samples considered responders or partial-responders (RF and BM, all samples): 29 out of 35 samples
AML samples with significant effect (Section 6.2.6, 4 weeks): significant effects on 4 out of 5 AML samples
engrafted samples with significant and dramatic responses (Section 6.3, 31 patient samples tested): 24 out of 28
responder samples (among 7 AML samples incl. 2 pilot samples): 5 samples were responders
samples that did not respond at all, injected RF (group 3): 4 out of 9
samples with no AML reduction, BM (group 3): 3 out of 6
response, Flt3-ITD vs wild-type Flt3 in cytogenetically normal AML (mouse, in vivo): slightly less response to Compound D in injected RF but similar response in BM
response, abnormal vs normal karyotypes (mouse, in vivo): better response
AML cells in RF and BM [1]: completely eradicated to undetectable levels
absolute numbers of primitive CD34+ cells [1]: very low and undetectable levels
